{
  "source": "patent US20120301895A1",
  "about": "“METHODS OF MODULATING BINDING OF SON OF SEVENLESS TO PHOSPHATIDIC ACID AND IDENTIFYING COMPOUNDS THAT MODULATE SUCH BINDING” (THE RESEARCH FOUNDATION OF STATE UNIVERSITY OF NEW YORK, priority 2007, published 2012)",
  "key": {"HIF2α": {"tested_on": "HIF2α", "assay": "HIF2α expression in 786-O cells (Western blot)", "format": "cell-based, human", "conditions": "0.5% serum, 4 hr, honokiol 20 μM, 1-BtOH 0.8%", "protocol": "In FIG. 15B, 786-O cells were plated and then shifted to media containing 0.5% serum 24 hr later. 18 hr later, the cells were treated with 1-Bt0H (0.8%), honokiol (Hon) (20 μM), and t-BtOH (0.8%) as indicated. Cell lysates were prepared 4 hr later and examined for HIF2α and actin expression by Western lot analysis. The experiment shown is representative of two independent experiments.\nExtraction of proteins from cultured cells and Western blot analysis of extracted proteins was performed using the ECL system (Amersham) as described previously (Chen et al., “Alternative Phospholipase D/mTOR Survival Signal in Human Breast Cancer Cells,” Oncogene 24:672-9 (2005), which is hereby incorporated by reference in its entirety).\nThe effect of honokiol on HIF2α expression was examined in these cells."}, "Sos-PH [1]": {"target": "T1, Sos-PH (Homo sapiens, UniProt Q07889)", "T1 construct": "expressed in transfected cells; host or cells: COS-1", "T1 sequence (Q07889 422-551)": "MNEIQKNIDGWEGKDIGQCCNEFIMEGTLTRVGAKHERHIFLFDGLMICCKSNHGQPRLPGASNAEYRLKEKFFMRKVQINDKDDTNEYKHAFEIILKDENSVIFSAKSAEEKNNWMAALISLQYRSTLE", "assay": "PA-induced plasma membrane translocation of GFP-tagged Sos-PH in COS-1 cells (fluorescence microscopy)", "format": "cell-based, African green monkey", "conditions": "membrane-permeable PA 100 μM, 20 min, serum-starved COS-1 cells, wild-type Sos-PH", "procedure": "(§1) In FIG. 6A, COS-1 cells were transfected with GFP-tagged constructs of Sos-PH or Sos-PH-HR/EE. The cells were serum-starved and then treated with PA (100 μM) for 20 min. In FIG. 6B, COS-1 cells were transfected with HA-tagged Sos-ΔC or Sos-ΔC-HR/EE. The cells were serum-starved and then stimulated with serum (20%) for 10 min. For FIGS. 6A-B, the fluorescence staining patterns were analyzed through the acquisition of serial optical Z sections. The images shown represent single 0.25 μm optical sections acquired at the mid plane of the cells with the same exposure time. Membrane localization is reflected by the relative increase in fluorescence intensity at the cell periphery (arrowheads). The boxed areas are enlarged on the top and bottom of the corresponding images. The number of cells displaying plasma membrane localization of the protein is expressed as percentage of the total number of cells scored and normalized to the maximal value obtained for each experiment. […] Results are the mean+/−s.d. of three independent experiments with at least 100 cells scored in each experiment. Scale bars represent 20 μm in all panels. In FIGS. 6C-D, COS-1 cells were co-transfected with HA-tagged Ras and the indicated HA-tagged Sos-ΔC constructs. […] Ras activation was measured by the RBD pull-down assay as described in the Examples. […]"}, "Sos-PH [2]": {"target": "T2, Sos-PH (Homo sapiens, UniProt Q07889, H475E/R479E)", "T2 construct": "expressed in transfected cells; host or cells: COS-1", "T2 sequence (Q07889 422-551 H475E/R479E)": "T1 sequence (Q07889 422-551) with H54E, R58E", "assay": "PA-induced plasma membrane translocation of GFP-tagged Sos-PH in COS-1 cells (fluorescence microscopy)", "format": "cell-based, African green monkey", "conditions": "membrane-permeable PA 100 μM, 20 min, serum-starved COS-1 cells", "procedure": "as §1"}, "Ras": {"tested_on": "Ras", "assay": "Ras activation by Sos-ΔC after PA treatment, RBD pull-down in COS-1 cells", "format": "cell-based", "conditions": "membrane-permeable PA 100 μM, serum-starved COS-1 cells", "procedure": "as §1, with “The boxed areas are enlarged on the top and bottom of the corresponding images.” left out, “experiment.” for “experiment. Scale bars represent 20 μm in all panels. In FIGS. 6C-D, COS-1 cells were co-transfected with HA-tagged Ras and the indicated HA-tagged Sos-ΔC constructs.”\nThe levels of Ras-GTP were determined by the GST-RBD pull down assay as described previously (Boykevisch et al., “Regulation of Ras Signaling Dynamics by Sos-mediated Positive Feedback,” Curr. Biol. 16:2173-2179 (2006), which is hereby incorporated by reference in its entirety). […]"}},
  "note": "Where a chain is given by its changes, count along the chain named.",
  "data": [
    {"smiles": "CCCCO", "note": "[1-butanol]", "values": [
      {"measurement": "HIF2α expression", "setting": "HIF2α", "value": "suppressed"}
    ]},
    {"smiles": "CCCCCCCCCCCC(=O)OC[C@H](COP(=O)(O)O)OC(=O)CCCCCCCCCCC", "note": "[PA, 1,2-Dilauroyl-sn-Glycero-3-Phosphate]", "values": [
      {"measurement": "Sos-PH translocation to the plasma membrane", "setting": "Sos-PH [1]", "value": "stimulated"},
      {"measurement": "plasma membrane recruitment of Sos-PH-HR/EE", "setting": "Sos-PH [2]", "value": "failed to induce"},
      {"measurement": "Ras activation by SosΔC", "setting": "Ras", "value": "sufficed to induce"},
      {"measurement": "level of active Ras in cells expressing SosΔC-HR/EE", "setting": "Ras", "value": "did not increase"}
    ]}
  ]
}
